Entries after “also recorded” stand apart in the source; their conditions may differ. Where two headings read alike, the source gives them in different places. *1 amine or outer side, *2 acyl side, *3 side chain or, on linkers, in order; H or OH if unused. Where a SMILES comes first, the peptide text is derived from it. Bridges are numbered along the chain shown (N, C = ends). [ ]: non-standard residue; d: D form. The star is where a group is joined. pTerphenylCO(4''-OnC5H11) = CCCCCOc1ccc(-c2ccc(-c3ccc(C(=O)*)cc3)cc2)cc1; Orn(4R-OH,5R-OH) = O=C([C@H](C[C@@H](O)[C@@H](O)N[*:3])N[*:1])[*:2]; hTyr(3S-OH,4S-OH) = N[C@H](C(=O)O)[C@H](O)[C@@H](O)c1ccc(O)cc1; Pro(3S-OH,4S-Me) = C[C@H]1CN[C@H](C(=O)O)[C@H]1O; Hyp = O=C(O)[C@@H]1C[C@@H](O)CN1
Key:
zebrafish embryos = details: for Mortality rate (MR) / Pericardial effusion (percentage of treated larvae): 1 µM; for Mortality rate (MR): average percentage of larvae that died before imaging; for Effect on heart functionality: clinically relevant doses (Cmax); for Pericardial Effusion Rate(%): zebrafish, in vivo; for Overall effect on embryonic development / cardiovascular system: screening concentration; for Overall effect on embryonic development: clinically relevant concentrations (Cmax)
zebrafish larvae = assay: Behavioral assay (bright/dark locomotion test, DanioVision); details: for Effect on swimming behavior: screening concentration 1 µM (Ivermectin 0.5 µM)
[1] = tested on: inflammatory and immune response gene expression; type: in vivo, zebrafish (Danio rerio); details: for Inflammatory response related gene expression upon SARS-CoV-2 spike protein treatment: with spike protein; for Inflammatory gene response in the absence of spike protein: without spike protein, vs DMSO
[2] = read-out: Cmax (highest concentration detected in blood plasma), humans; cited from earlier work
[3] = with SARS-CoV-2 spike protein, drug 48 h

Compound: 17α-Hydroxyprogesterone
- Effect on body length (zebrafish embryos; 1 µM screening): larval overgrowth

Compound: S=C(NCc1ccc2c(c1)OCO2)N1CCN(c2ncnc3c2oc2ccccc23)CC1 [Amuvatinib]
- Effect on swimming behavior (zebrafish larvae): effect

Compound: CCCCCOc1ccc(-c2ccc(-c3ccc(C(=O)N[C@H]4C[C@@H](O)[C@@H](O)NC(=O)[C@@H]5[C@@H](O)[C@@H](C)CN5C(=O)[C@H]([C@@H](C)O)NC(=O)[C@H]([C@H](O)[C@@H](O)c5ccc(O)cc5)NC(=O)[C@@H]5C[C@@H](O)CN5C(=O)[C@H]([C@@H](C)O)NC4=O)cc3)cc2)cc1 [Anidulafungin] ({pTerphenylCO(4''-OnC5H11)}-[Orn(4R-OH,5R-OH)]T[Hyp][hTyr(3S-OH,4S-OH)]T[Pro(3S-OH,4S-Me)]; lactam 1-C)
- Effect on swimming behavior (zebrafish larvae): effect

Compound: Cc1cccc(/C=N/Nc2cc(N3CCOCC3)nc(OCCc3ccccn3)n2)c1 [Apilimod]
- Mortality rate (MR) (zebrafish embryos): over 10%
- Effect on swimming behavior (zebrafish larvae): effect

Compound: COc1ccc(CCN2CCC(Nc3nc4ccccc4n3Cc3ccc(F)cc3)CC2)cc1 [Astemizole]
- Pericardial effusion (percentage of treated larvae) (zebrafish embryos): 94.4%
- Effect on ISV area (zebrafish embryos; 1 µM screening): negative effects
- Effect on body length (zebrafish embryos; 1 µM screening): highest reduction
- Mortality rate (MR) (zebrafish embryos): over 10%

Compound: CCS(=O)(=O)N1CC(CC#N)(n2cc(-c3ncnc4[nH]ccc34)cn2)C1 [Baricitinib]
- ccl20a.3 levels [1, 3]: significantly reduced
- Inflammatory response related gene expression upon SARS-CoV-2 spike protein treatment [1]: counteracted
- Inflammatory gene response in the absence of spike protein [1]: alter the inflammatory gene response
- Mean Mortality(%) (zebrafish embryos; at Cmax, mean of morphological and behavioral assay): 18.3%
- Effect on heart functionality (zebrafish embryos): reduced heart functionality
- Pericardial Effusion Rate(%) (zebrafish embryos): 9.30%
- Cmax [2]: 144 nM
- Effect on motility / swimming behavior / embryo activity (zebrafish larvae; at Cmax): effects on embryo activity; also recorded: alterations; also recorded: affected

Compound: Nc1nc(Nc2ccc3c(c2)CC[C@@H](N2CCCC2)CC3)nn1-c1cc2c(nn1)-c1ccccc1CCC2 [Bemcentinib]
- Effect on swimming behavior (zebrafish larvae): effect

Compound: COc1cc2nccc(Oc3ccc(NC(=O)C4(C(=O)Nc5ccc(F)cc5)CC4)cc3)c2cc1OC [Cabozantinib]
- Effect on ISV formation (zebrafish embryos; 1 µM screening): strong inhibition
- Effect on swimming behavior (zebrafish larvae): effect

Compound: CN(C)C(=O)COC(=O)Cc1ccc(OC(=O)c2ccc(NC(=N)N)cc2)cc1 [Camostat]
- Effect on swimming behavior (zebrafish larvae): effect

Compound: CC(C)C[C@H](NC(=O)[C@@H](NC(=O)c1cccc(-c2ccccc2)n1)[C@@H](C)O)B(O)O [Delanzomib]
- Effect on swimming behavior (zebrafish larvae): effect

Compound: NC(=O)c1nc(F)c[nH]c1=O [Favipiravir]
- Effect on body length (zebrafish embryos; 1 µM screening): mild effect

Compound: COc1ccc2cc1Oc1ccc(cc1)C[C@H]1c3cc(c(OC)cc3CCN1C)Oc1c(O)c(OC)cc3c1[C@H](C2)N(C)CC3 [Hanfangchin B]
- Effect on swimming behavior (zebrafish larvae): effect

Compound: CCN(CCO)CCCC(C)Nc1ccnc2cc(Cl)ccc12 (stereo not drawn) [Hydroxychloroquine]
- Effect on ISV area (zebrafish embryos; 1 µM screening): significant reductions
- Effect on ejection fraction (zebrafish embryos; 1 µM screening): significant reductions
- Overall effect on embryonic development / cardiovascular system (zebrafish embryos): mild defects on the cardiovascular system

Compound: Cc1cccc(C)c1OCC(=O)N[C@@H](Cc1ccccc1)[C@@H](O)C[C@H](Cc1ccccc1)NC(=O)[C@H](C(C)C)N1CCCNC1=O [Lopinavir]
- Effect on ejection fraction (zebrafish embryos; 1 µM screening): reduced

Compound: COC(=O)C1=C(C)NC(C)=C(C(=O)OCCN2CCN(C(c3ccccc3)c3ccccc3)CC2)C1c1cccc([N+](=O)[O-])c1 (stereo not drawn) [Manidipine]
- Mortality rate (MR) (zebrafish embryos): over 10%

Compound: CO[C@@H]1[C@H](N(C)C(=O)c2ccccc2)C[C@H]2O[C@]1(C)n1c3ccccc3c3c4c(c5c6ccccc6n2c5c31)C(=O)NC4 [Midostaurin]
- Mortality rate (MR) (zebrafish embryos): over 10%

Compound: CC(C)C(=O)OC[C@H]1O[C@@H](n2ccc(NO)nc2=O)[C@H](O)[C@@H]1O [Molnupiravir]
- ccl20a.3 levels [1, 3]: significantly reduced
- il4 expression [1, 3]: successfully downregulated
- ptg expression [1, 3]: upregulated to control levels
- Inflammatory response related gene expression upon SARS-CoV-2 spike protein treatment [1]: counteracted
- Inflammatory gene response in the absence of spike protein [1]: alter the inflammatory gene response
- Overall effect on embryonic development (zebrafish embryos): severe adverse effects
- Pericardial Effusion Rate(%) (zebrafish embryos): 0.00%
- Cmax [2]: 40 nM

Compound: O=C(Nc1ccc([N+](=O)[O-])cc1Cl)c1cc(Cl)ccc1O [Niclosamide]
- Mortality rate (MR) (zebrafish embryos): over 10%

Compound: O=C(Nc1cc(Cl)cc(Cl)c1O)c1c(O)c(Cl)cc(Cl)c1Cl [Oxyclozanide]
- Effect on swimming behavior (zebrafish larvae): effect

Compound: O=c1[nH]c2ccccc2n1C1CCN(CCCC(c2ccc(F)cc2)c2ccc(F)cc2)CC1 [Pimozide]
- Pericardial effusion (percentage of treated larvae) (zebrafish embryos): 100%
- Effect on ISV area (zebrafish embryos; 1 µM screening): negative effects
- Effect on body length (zebrafish embryos; 1 µM screening): highest reduction
- Mortality rate (MR) (zebrafish embryos): over 10%

Compound: Cc1ccc(C(=O)Nc2ccc(CN3CCN(C)CC3)c(C(F)(F)F)c2)cc1C#Cc1cnc2cccnn12 [Ponatinib]
- Pericardial effusion (percentage of treated larvae) (zebrafish embryos): 100%
- Effect on body length (zebrafish embryos; 1 µM screening): highest reduction
- Effect on swimming behavior (zebrafish larvae): effect

Compound: C[C@@H](c1nc(-c2ccc(C#N)cc2)cs1)[C@](O)(Cn1cncn1)c1ccc(F)cc1F [Ravuconazole]
- Effect on swimming behavior (zebrafish larvae): effect

Compound: CNC(=O)c1cc(Oc2ccc(NC(=O)Nc3ccc(Cl)c(C(F)(F)F)c3)c(F)c2)ccn1 [Regorafenib]
- Effect on ISV formation (zebrafish embryos; 1 µM screening): strong inhibition

Compound: CCC(CC)COC(=O)[C@H](C)N[P@](=O)(OC[C@H]1O[C@@](C#N)(c2ccc3c(N)ncnn23)[C@H](O)[C@@H]1O)Oc1ccccc1 [Remdesivir]
- ptg expression [1, 3]: upregulated to control levels
- Inflammatory response related gene expression upon SARS-CoV-2 spike protein treatment [1]: counteracted
- Inflammatory gene response in the absence of spike protein [1]: broadest effect; also recorded: alter the inflammatory gene response
- Effect on ejection fraction (zebrafish embryos; at Cmax): decrease
- Effect on heart rate (zebrafish embryos; at Cmax): decrease
- Overall effect on embryonic development (zebrafish embryos): severe adverse effects
- Effect on heart functionality (zebrafish embryos): reduced
- Pericardial Effusion Rate(%) (zebrafish embryos): 7.69%
- Cmax [2]: 4500 nM

Compound: NC(=O)c1ncn([C@@H]2O[C@H](CO)[C@@H](O)[C@H]2O)n1 [Ribavirin]
- Effect on ISV area (zebrafish embryos; 1 µM screening): mildly reduced

Compound: CC(C)c1nc(CN(C)C(=O)N[C@H](C(=O)N[C@@H](Cc2ccccc2)C[C@H](O)[C@H](Cc2ccccc2)NC(=O)OCc2cncs2)C(C)C)cs1 [Ritonavir]
- Inflammatory response related gene expression upon SARS-CoV-2 spike protein treatment [1]: counteracted
- Inflammatory gene response in the absence of spike protein [1]: alter the inflammatory gene response
- Effect on ejection fraction (zebrafish embryos; at Cmax): altered
- Effect on heart rate (zebrafish embryos; at Cmax): altered
- Overall effect on embryonic development (zebrafish embryos): overall little embryonic alterations
- Pericardial Effusion Rate(%) (zebrafish embryos): 8.70%
- Cmax [2]: 15200 nM

Compound: CNC(=O)c1cc(Oc2ccc(NC(=O)Nc3ccc(Cl)c(C(F)(F)F)c3)cc2)ccn1 [Sorafenib]
- Effect on ISV formation (zebrafish embryos; 1 µM screening): strong inhibition

Compound: C=CC[C@@H]1/C=C(\C)C[C@H](C)C[C@H](OC)[C@H]2O[C@@](O)(C(=O)C(=O)N3CCCC[C@H]3C(=O)O[C@H](/C(C)=C/[C@@H]3CC[C@@H](O)[C@H](OC)C3)[C@H](C)[C@@H](O)CC1=O)[C@H](C)C[C@@H]2OC [Tacrolimus]
- Effect on ejection fraction (zebrafish embryos; 1 µM screening): increase

Compound: CCOC(=O)c1c(CSc2ccccc2)n(C)c2cc(Br)c(O)c(CN(C)C)c12 [Umifenovir]
- Effect on ISV area (zebrafish embryos; 1 µM screening): mildly reduced

Compound: Ivermectin
- Mortality (zebrafish embryos; 0.5 µM): mortality disappeared
- Effect on body length (zebrafish embryos; 1 µM screening): highest reduction
- Mortality rate (MR) (zebrafish embryos): over 10%
- Overall effect on embryonic development / cardiovascular system (zebrafish embryos): severely affected embryonic development
- Effects on larval behavior (zebrafish larvae; 0.5 µM): still observed effects
- Effect on swimming behavior (zebrafish larvae): most severe effects
